Drawing on patent publication US20240287076A1, “COMPOUNDS FOR TARGETING DEGRADATION OF BRUTON'S TYROSINE KINASE” (BIOGEN MA INC., priority 2021, published 2024), this text covers DC50 for 19 molecules.

Structures are written as SMILES.

A word on the DC50: it is the concentration at which degradation of the target reaches its halfway point.

The test deals with T1, BTK (Homo sapiens, UniProt Q06187).
T1 construct: The GM01501.3 cell line endogenously expresses BTK with a HiBiT fusion tag via CRISPR knock-in at its C-terminal region; endogenous in cells; host or cells: GM01501.3 (GM01501 cells engineered by CRISPR knock-in of HiBiT at the BTK locus)
T1 sequence (Q06187 whole entry, the tested form may be a part): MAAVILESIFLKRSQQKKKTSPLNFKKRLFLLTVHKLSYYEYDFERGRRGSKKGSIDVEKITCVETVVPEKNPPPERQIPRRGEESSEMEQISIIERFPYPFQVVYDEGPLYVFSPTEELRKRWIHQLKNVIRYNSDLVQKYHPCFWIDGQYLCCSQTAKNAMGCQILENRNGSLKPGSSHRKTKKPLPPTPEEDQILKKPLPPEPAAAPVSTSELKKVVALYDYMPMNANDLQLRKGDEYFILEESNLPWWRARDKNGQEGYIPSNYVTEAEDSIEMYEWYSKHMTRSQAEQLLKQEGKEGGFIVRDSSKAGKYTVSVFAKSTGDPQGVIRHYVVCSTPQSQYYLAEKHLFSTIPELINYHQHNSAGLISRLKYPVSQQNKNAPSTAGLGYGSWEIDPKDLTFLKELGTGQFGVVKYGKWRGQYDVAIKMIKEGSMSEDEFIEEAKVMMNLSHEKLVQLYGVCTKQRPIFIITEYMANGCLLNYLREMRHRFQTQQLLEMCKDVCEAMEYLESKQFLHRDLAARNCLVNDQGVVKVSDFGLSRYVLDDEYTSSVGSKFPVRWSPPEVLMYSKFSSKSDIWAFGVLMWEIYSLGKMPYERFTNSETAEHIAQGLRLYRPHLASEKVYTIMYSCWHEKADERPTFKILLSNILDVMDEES
Kind of test: BTK degradation assay using the HiBiT Method (Nano-Glo HiBiT Lytic Assay, GM01501.3 cells). In kind it is cell-based. As to conditions: HiBiT Degradation on GM01501.3 BTK @ 6 hours. The gist of the method: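 Degradation read-out: HiBiT luminescence after lytic reagent addition, giving DC50. Compounds dosed from 10 μM in 11 half-log steps (duplicate) onto GM01501.3 cells, whose endogenous BTK carries a C-terminal HiBiT knock-in tag; 6 h exposure, 37 °C, 5% CO2.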
(In general: With HiBiT, luminescence reflects the tagged protein that the partner subunit can reach.)
As to `Cc1cc(-c2ncnn3cc(N4CCN(C(=O)CC(C)(C)CNC(=O)c5ccc(OC6CCC(=O)NC6=O)cc5)CC4)cc23)ccc1CNC(=O)c1noc(C(C)(C)C)n1` (stereo not shown) [Example 192, 5-(tert-butyl)-N-(4-(6-(4-(4-(4-((2,6-dioxopiperidin-3-yl)oxy)benzamido)-3,3-dimethylbutanoyl)piperazin-1-yl)pyrrolo[2,1-f][1,2,4]triazin-4-yl)-2-methylbenzyl)-1,2,4-oxadiazole-3-carboxamide], the DC50 was below 100 nM.
Next, `Cn1nc(N2CCC(=O)NC2=O)c2ccc(C3CCN(Cc4ccc(-c5cc6nccc(-c7ccc(CNC(=O)c8noc(C(C)(C)C)n8)c(F)c7)n6n5)cc4F)CC3)cc21` [Example 166, 5-tert-butyl-N-[[4-[2-[4-[[4-[3-(2,4-dioxohexahydropyrimidin-1-yl)-1-methyl-indazol-6-yl]-1-piperidyl]methyl]-3-fluoro-phenyl]pyrazolo[1,5-a]pyrimidin-7-yl]-2-fluoro-phenyl]methyl]-1,2,4-oxadiazole-3-carboxamide]: below 100 nM; `Cc1cc(-c2ncnn3cc(CCCCN4CCC(c5ccc(NC6CCC(=O)NC6=O)cc5)C(F)(F)C4)cc23)ccc1CNC(=O)c1noc(C(C)(C)C)n1` (stereo not shown) [Example 132, 5-tert-butyl-N-[[4-[6-[4-[4-[4-[(2,6-dioxo-3-piperidyl)amino]phenyl]-3,3-difluoro-1-piperidyl]butyl]pyrrolo[2,1-f][1,2,4]triazin-4-yl]-2-methyl-phenyl]methyl]-1,2,4-oxadiazole-3-carboxamide]: below 100 nM.
`COc1cc(CN2CCC(c3ccc(C4CCC(=O)NC4=O)cc3)CC2)ccc1-c1cc2c(-c3ccc(CNC(=O)c4noc(C(C)(C)C)n4)c(C)c3)ncnn2c1` (stereo not shown) [Example 22, 5-tert-butyl-N-[[4-[6-[4-[[4-[4-(2,6-dioxo-3-piperidyl)phenyl]-1-piperidyl]methyl]-2-methoxy-phenyl]pyrrolo[2,1-f][1,2,4]triazin-4-yl]-2-methyl-phenyl]methyl]-1,2,4-oxadiazole-3-carboxamide] showed a DC50 below 100 nM.
Next, `Cc1cc(-c2ncnn3cc(-c4cnn(CCN5CCN(c6ccc(C7CCC(=O)NC7=O)cn6)CC5)c4)cc23)ccc1CNC(=O)c1noc(C(C)(C)C)n1` (stereo not shown) [Example 298, 5-(tert-butyl)-N-(4-(6-(1-(2-(4-(5-(2,6-dioxopiperidin-3-yl)pyridin-2-yl)piperazin-1-yl)ethyl)-1H-pyrazol-4-yl)pyrrolo[2,1-f] [1,2,4]triazin-4-yl)-2-methylbenzyl)-1,2,4-oxadiazole-3-carboxamide]: below 100 nM.
Next, `CC(C)(C)c1nc(C(=O)NCc2ccc(-c3ncnn4cc(-c5ccc(OCCN6CCC(c7ccc(C8(C)CCC(=O)NC8=O)cc7)CC6)cc5)cc34)cc2F)no1` (stereo not shown) [Example 111, 5-tert-butyl-N-[[2-fluoro-4-[6-[4-[2-[4-[4-(3-methyl-2,6-dioxo-3-piperidyl)phenyl]-1-piperidyl]ethoxy]phenyl]pyrrolo[2,1-f][1,2,4]triazin-4-yl]phenyl]methyl]-1,2,4-oxadiazole-3-carboxamide]: below 100 nM.
Then `Cc1cc(-c2ncnn3cc(OCCCN4CCC(c5ccc6c(N7CCC(=O)NC7=O)nn(C)c6c5)CC4)cc23)ccc1CNC(=O)N1CC(OC(C)(C)C)C1` [Example 293, 3-(tert-butoxy)-N-(4-(6-(3-(4-(3-(2,4-dioxotetrahydropyrimidin-1(2H)-yl)-1-methyl-1H-indazol-6-yl)piperidin-1-yl)propoxy)pyrrolo[2,1-f][1,2,4]triazin-4-yl)-2-methylbenzyl)azetidine-1-carboxamide], with below 100 nM; and `Cn1nc(N2CCC(=O)NC2=O)c2ccc(C3CCN(Cc4ccc(-c5cc6nccc(-c7ccc(CNC(=O)N8CC(OC(C)(C)C)C8)c(F)c7)n6n5)cc4)CC3)cc21` [Example 165, 3-tert-butoxy-N-[[4-[2-[4-[[4-[3-(2,4-dioxohexahydropyrimidin-1-yl)-1-methyl-indazol-6-yl]-1-piperidyl]methyl]phenyl]pyrazolo[1,5-a]pyrimidin-7-yl]-2-fluoro-phenyl]methyl]azetidine-1-carboxamide], with below 100 nM.
Molecule `Cc1cc(-c2ncnn3cc(CCN4CCC(c5ccc6c(C7CCC(=O)NC7=O)nn(C)c6c5)CC4)cc23)ccc1CNC(=O)c1noc(C(C)(C)C)n1` (stereo not shown) [Example 255, 5-(tert-butyl)-N-(4-(6-(2-(4-(3-(2,6-dioxopiperidin-3-yl)-1-methyl-1H-indazol-6-yl)piperidin-1-yl)ethyl)pyrrolo[2,1-f][1,2,4]triazin-4-yl)-2-methylbenzyl)-1,2,4-oxadiazole-3-carboxamide] returned a DC50 below 100 nM.
Then `Cc1cc(-c2ncnn3cc(CCN4CCN(c5ccc(NC6CCC(=O)NC6=O)cn5)CC4)cc23)ccc1CNC(=O)c1noc(C(C)(C)C)n1` (stereo not shown) [Example 260, 5-(tert-butyl)-N-(4-(6-(2-(4-(5-((2,6-dioxopiperidin-3-yl)amino)pyridin-2-yl)piperazin-1-yl)ethyl)pyrrolo[2,1-f][1,2,4]triazin-4-yl)-2-methylbenzyl)-1,2,4-oxadiazole-3-carboxamide], with below 100 nM.
Then `Cc1cc(-c2ncnn3cc(CCCCN4CCC(c5ccc(NC6CCC(=O)NC6=O)cc5)CC4)cc23)ccc1CNC(=O)c1noc(C(C)(C)C)n1` (stereo not shown) [Example 130, 5-tert-butyl-N-[[4-[6-[4-[4-[4-[(2,6-dioxo-3-piperidyl)amino]phenyl]-1-piperidyl]butyl]pyrrolo[2,1-f][1,2,4]triazin-4-yl]-2-methyl-phenyl]methyl]-1,2,4-oxadiazole-3-carboxamide], with below 100 nM.
Take `Cc1cc(-c2ncnn3cc(-c4ccc(CN5CCC(c6ccc(NC7CCC(=O)NC7=O)cc6)CC5)cc4)cc23)ccc1CNC(=O)c1ncc(C(C)C)cc1F` (stereo not shown) [Example 76, N-[[4-[6-[4-[[4-[4-[(2,6-dioxo-3-piperidyl)amino]phenyl]-1-piperidyl]methyl]phenyl]pyrrolo[2,1-f][1,2,4]triazin-4-yl]-2-methyl-phenyl]methyl]-3-fluoro-5-isopropyl-pyridine-2-carboxamide]: the DC50 is below 100 nM.
Then `Cc1cc(-c2ncnn3cc(N4CCN(C(=O)C5CCOC5CNC(=O)c5ccc(OC6CCC(=O)NC6=O)cc5)CC4)cc23)ccc1CNC(=O)c1noc(C(C)(C)C)n1` (stereo not shown) [Example 187, 5-(tert-butyl)-N-(4-(6-(4-(2-((4-((2,6-dioxopiperidin-3-yl)oxy)benzamido)methyl)tetrahydrofuran-3-carbonyl)piperazin-1-yl)pyrrolo[2,1-f][1,2,4]triazin-4-yl)-2-methylbenzyl)-1,2,4-oxadiazole-3-carboxamide], with below 100 nM; and `CC(C)(C)c1nc(C(=O)NCc2ccc(-c3ncnn4cc(CCC(F)(F)CN5CCC(c6ccc(C7CCC(=O)NC7=O)cc6)CC5)cc34)cc2F)no1` (stereo not shown) [Example 169, 5-tert-butyl-N-[[4-[6-[4-[4-[4-(2,6-dioxo-3-piperidyl)phenyl]-1-piperidyl]-3,3-difluoro-butyl]pyrrolo[2,1-f][1,2,4]triazin-4-yl]-2-fluoro-phenyl]methyl]-1,2,4-oxadiazole-3-carboxamide], with 100 to 500 nM; and `Cc1cc(-c2ncnn3cc(-c4ccc(CN5CCC(c6ccc7c(N8CCC(=O)NC8=O)nn(C)c7c6)CC5)c(F)c4)cc23)ccc1CNC(=O)c1noc(C(C)(C)C)n1` [Example 245, 5-(tert-butyl)-N-(4-(6-(4-((4-(3-(2,4-dioxotetrahydropyrimidin-1(^2H)-yl)-1-methyl-1H-indazol-6-yl)piperidin-1-yl)methyl)-3-fluorophenyl)pyrrolo[2,1-f][1,2,4]triazin-4-yl)-2-methylbenzyl)-1,2,4-oxadiazole-3-carboxamide], with below 100 nM.
Then `Cc1cc(-c2ncnn3cc(-c4ccc(C(=O)NCCc5ccc(NC6CCC(=O)NC6=O)cc5)cc4)cc23)ccc1CNC(=O)c1noc(C(C)(C)C)n1` (stereo not shown) [Example 198, 5-(tert-butyl)-N-(4-(6-(4-((4-((2,6-dioxopiperidin-3-yl)amino)phenethyl)carbamoyl)phenyl)pyrrolo[2,1-f] [1,2,4]triazin-4-yl)-2-methylbenzyl)-1,2,4-oxadiazole-3-carboxamide], with below 100 nM.
Next, `Cc1cc(-c2ncnn3cc(-c4ccc(COCCCc5ccc(NC6CCC(=O)NC6=O)cc5)cc4)cc23)ccc1CNC(=O)c1noc(C(C)(C)C)n1` (stereo not shown) [Example 147, 5-tert-butyl-N-[[4-[6-[4-[3-[4-[(2,6-dioxo-3-piperidyl)amino]phenyl]propoxymethyl]phenyl]pyrrolo[2,1-f][1,2,4]triazin-4-yl]-2-methyl-phenyl]methyl]-1,2,4-oxadiazole-3-carboxamide]: 100 to 500 nM; `CC(C)(C)c1nc(C(=O)NCc2ccc(-c3ncnn4cc(CCN5CCC(n6ccc(NC7CCC(=O)NC7=O)n6)CC5)cc34)cc2F)no1` (stereo not shown) [Example 123, 5-tert-butyl-N-[[4-[6-[2-[4-[3-[(2,6-dioxo-3-piperidyl)amino]pyrazol-1-yl]-1-piperidyl]ethyl]pyrrolo[2,1-f][1,2,4]triazin-4-yl]-2-fluoro-phenyl]methyl]-1,2,4-oxadiazole-3-carboxamide]: 100 to 500 nM; `Cc1cc(-c2ncnn3cc(-c4ccc(CN5CCC(c6ccc(NC7CCC(=O)NC7=O)cc6)CC5)cc4)cc23)ccc1CNC(=O)c1ccc(C(C)C)nc1` (stereo not shown) [Example 69, N-[[4-[6-[4-[[4-[4-[(2,6-dioxo-3-piperidyl)amino]phenyl]-1-piperidyl]methyl]phenyl]pyrrolo[2,1-f][1,2,4]triazin-4-yl]-2-methyl-phenyl]methyl]-6-isopropyl-pyridine-3-carboxamide]: below 100 nM.
